In ChEMBL document CHEMBL1131484, “Human growth hormone-releasing hormone hGHRH(1-29)-NH2: systematic structure-activity relationship studies” (J Med Chem, 1998):
Values joined by “and” are separate entries in the source; they are usually repeats but may differ in a detail not shown here. Identical values can stand only once. Bridge positions count the residues as written; N and C are the ends. Square brackets hold non-standard residues; d marks the D form. Peptide text beside a SMILES is read from it. αMeY = C[C@](N)(Cc1ccc(O)cc1)C(=O)O

Biological target: T1, Growth hormone-releasing hormone receptor (Rattus norvegicus) (UniProt Q02644)
T1 sequence (whole entry): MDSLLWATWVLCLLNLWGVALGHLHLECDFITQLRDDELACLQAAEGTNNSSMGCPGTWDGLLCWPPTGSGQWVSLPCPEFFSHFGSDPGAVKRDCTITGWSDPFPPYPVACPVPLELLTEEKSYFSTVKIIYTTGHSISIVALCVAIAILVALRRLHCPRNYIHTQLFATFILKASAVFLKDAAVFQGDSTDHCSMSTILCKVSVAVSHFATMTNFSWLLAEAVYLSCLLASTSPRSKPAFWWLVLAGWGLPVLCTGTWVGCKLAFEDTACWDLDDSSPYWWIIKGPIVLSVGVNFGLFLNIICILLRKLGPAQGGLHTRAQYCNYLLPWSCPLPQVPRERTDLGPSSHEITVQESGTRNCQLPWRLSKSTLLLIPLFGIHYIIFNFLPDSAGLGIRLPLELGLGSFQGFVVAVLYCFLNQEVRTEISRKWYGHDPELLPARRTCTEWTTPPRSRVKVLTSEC
Assay: Potency for growth hormone releasing hormone receptor (GHRFR) relative to human GHRH(1-40)OH- in the rat pituitary cell culture assay
Format: functional, cell-based
Details: Pituitary gland cell

SMILES: CCCC[C@H](NC(=O)[C@@H](NC(=O)[C@H](CC(=O)O)NC(=O)[C@H](CCC(N)=O)NC(=O)[C@H](CC(C)C)NC(=O)[C@H](CC(C)C)NC(=O)[C@H](CCCCN)NC(=O)[C@H](CCCN=C(N)N)NC(=O)[C@H](C)NC(=O)[C@H](CO)NC(=O)[C@H](CC(C)C)NC(=O)[C@H](CCC(N)=O)NC(=O)CNC(=O)[C@H](CC(C)C)NC(=O)[C@@H](NC(=O)[C@H](CCCCN)NC(=O)[C@H](CCCN=C(N)N)NC(=O)[C@H](Cc1ccc(O)cc1)NC(=O)[C@H](CO)NC(=O)[C@H](CC(N)=O)NC(=O)[C@@H](NC(=O)[C@H](Cc1ccccc1)NC(=O)[C@@H](NC(=O)[C@H](C)NC(=O)[C@H](CC(=O)O)NC(=O)[C@H](C)NC(=O)[C@@H](N)Cc1ccc(O)cc1)[C@@H](C)CC)[C@@H](C)O)C(C)C)[C@@H](C)CC)C(=O)N[C@@H](CO)C(=O)N[C@@H](CCCN=C(N)N)C(N)=O
- Relative potency: 2.38

SMILES: CCCC[C@H]1NC(=O)[C@H]([C@@H](C)CC)NC(=O)[C@@H](NC(=O)[C@H](Cc2c[nH]cn2)NC(=O)[C@H](CC(C)C)NC(=O)[C@H](CC(C)C)NC(=O)[C@H](CCCCN)NC(=O)[C@H](CCCN=C(N)N)NC(=O)[C@H](Cc2ccccc2)NC(=O)[C@@H](NC(=O)[C@H](CC(C)C)NC(=O)[C@H](CCC(N)=O)NC(=O)[C@H](C)NC(=O)[C@H](CC(C)C)NC(=O)[C@@H](NC(=O)[C@H](CCCN=C(N)N)NC(=O)[C@H](CCCN=C(N)N)NC(=O)[C@H](Cc2ccc(O)cc2)NC(=O)[C@H](CO)NC(=O)[C@H](CO)NC(=O)[C@@H](NC(=O)[C@H](Cc2ccccc2)NC(=O)[C@@H](NC(=O)[C@H](C)NC(=O)[C@H](CC(=O)O)NC(=O)[C@H](C)NC(=O)[C@@](C)(N)Cc2c[nH]cn2)[C@@H](C)CC)[C@@H](C)O)[C@@H](C)CC)[C@@H](C)CC)CSSC[C@H](C(N)=O)NC(=O)[C@H](CC(N)=O)NC1=O
- Relative potency: 1.1

SMILES: CCCC[C@H]1NC(=O)[C@H]([C@@H](C)CC)NC(=O)[C@H](NC(=O)[C@H](Cc2c[nH]cn2)NC(=O)[C@H](CC(C)C)NC(=O)[C@H](CC(C)C)NC(=O)[C@H](CCCCN)NC(=O)[C@H](CCCN=C(N)N)NC(=O)[C@H](Cc2ccccc2)NC(=O)[C@@H](NC(=O)[C@H](CC(C)C)NC(=O)[C@H](CCC(N)=O)NC(=O)[C@H](C)NC(=O)[C@H](CC(C)C)NC(=O)[C@@H](NC(=O)[C@H](CCCN=C(N)N)NC(=O)[C@H](CCCN=C(N)N)NC(=O)[C@H](Cc2ccc(O)cc2)NC(=O)[C@H](CO)NC(=O)[C@H](CO)NC(=O)[C@@H](NC(=O)[C@H](Cc2ccccc2)NC(=O)[C@@H](NC(=O)[C@H](C)NC(=O)[C@H](CC(=O)O)NC(=O)[C@H](C)NC(=O)[C@@](C)(N)Cc2c[nH]cn2)[C@@H](C)CC)[C@@H](C)O)[C@@H](C)CC)[C@@H](C)CC)CSSC[C@@H](C(N)=O)NC(=O)[C@H](CC(N)=O)NC1=O
- Relative potency: 1.9 and 4.4

SMILES: CCCC[C@H]1NC(=O)[C@H]([C@@H](C)CC)NC(=O)[C@H](NC(=O)[C@H](Cc2c[nH]cn2)NC(=O)[C@H](CC(C)C)NC(=O)[C@H](CC(C)C)NC(=O)[C@H](CCCCN)NC(=O)[C@H](CCCN=C(N)N)NC(=O)[C@H](Cc2ccccc2)NC(=O)[C@@H](NC(=O)[C@H](CC(C)C)NC(=O)[C@H](CCC(N)=O)NC(=O)[C@H](C)NC(=O)[C@H](CC(C)C)NC(=O)[C@@H](NC(=O)[C@H](CCCN=C(N)N)NC(=O)[C@H](CCCN=C(N)N)NC(=O)[C@H](Cc2ccc(O)cc2)NC(=O)[C@H](CO)NC(=O)[C@H](CO)NC(=O)[C@@H](NC(=O)[C@H](Cc2ccccc2)NC(=O)[C@@H](NC(=O)[C@H](C)NC(=O)[C@H](CC(=O)O)NC(=O)[C@H](C)NC(=O)[C@@](C)(N)Cc2c[nH]cn2)[C@@H](C)CC)[C@@H](C)O)[C@@H](C)CC)[C@@H](C)CC)CSSC[C@H](C(N)=O)NC(=O)[C@H](CC(N)=O)NC1=O
- Relative potency: 1.5

SMILES: CC[C@@H](C)[C@@H](NC(=O)[C@@H](C)NC(=O)[C@@H](CC(=O)O)NC(=O)[C@@H](C)NC(=O)[C@H](N)Cc1ccc(O)cc1)C(=O)N[C@H](Cc1ccccc1)C(=O)N[C@@H](C(=O)N[C@H](CC(N)=O)C(=O)N[C@H](CO)C(=O)N[C@H]1CCC(=O)NCCCC[C@H](C(=O)N[C@@H](CC(C)C)C(=O)NCC(=O)N[C@H](CCC(N)=O)C(=O)N[C@H](CC(C)C)C(=O)N[C@H](CO)C(=O)N[C@H](C)C(=O)N[C@H](CCCN=C(N)N)C(=O)N[C@H](CCCCN)C(=O)N[C@H](CC(C)C)C(=O)N[C@H](CC(C)C)C(=O)N[C@H](CCC(N)=O)C(=O)N[C@H](CC(=O)O)C(=O)N[C@@H](C(=O)N[C@H](CCSC)C(=O)N[C@H](CO)C(=O)N[C@H](CCCN=C(N)N)C(N)=O)[C@H](C)CC)NC(=O)[C@@H](CCCCN)NC(=O)[C@H](CCCN=C(N)N)NC1=O)[C@H](C)O
- Relative potency: 0.088

SMILES: CC[C@H](C)[C@H](NC(=O)[C@H](C)NC(=O)[C@H](CC(=O)O)NC(=O)[C@H](C)NC(=O)[C@@H](N)Cc1ccc(O)cc1)C(=O)N[C@@H](Cc1ccccc1)C(=O)N[C@H](C(=O)N[C@@H](CC(N)=O)C(=O)N[C@@H](CO)C(=O)N[C@@H](Cc1ccc(O)cc1)C(=O)N[C@@H](CCCN=C(N)N)C(=O)N[C@@H](CCCCN)C(=O)N[C@H](C(=O)N[C@@H](CC(C)C)C(=O)NCC(=O)N[C@@H](CCC(N)=O)C(=O)N[C@@H](CC(C)C)C(=O)N[C@@H](CO)C(=O)N[C@@H](C)C(=O)N[C@H](CCCN=C(N)N)C(=O)N[C@H](CCCCN)C(=O)N[C@H](CC(C)C)C(=O)N[C@H](CC(C)C)C(=O)N[C@@H]1CCC(=O)NCCCC[C@@H](C(=O)N[C@@H](CO)C(=O)N[C@@H](CCCN=C(N)N)C(N)=O)NC(=O)[C@H]([C@@H](C)CC)NC(=O)[C@@H](CC(=O)O)NC1=O)C(C)C)[C@@H](C)O
- Relative potency: 1.3

SMILES: CC[C@H](C)[C@H](NC(=O)[C@H](C)NC(=O)[C@H](CC(=O)O)NC(=O)[C@H](C)NC(=O)[C@@H](N)Cc1ccc(O)cc1)C(=O)N[C@@H](Cc1ccccc1)C(=O)N[C@H](C(=O)N[C@@H](CC(N)=O)C(=O)N[C@@H](CO)C(=O)N[C@@H](Cc1ccc(O)cc1)C(=O)N[C@@H](CCCN=C(N)N)C(=O)N[C@@H](CCCCN)C(=O)N[C@H](C(=O)N[C@@H](CC(C)C)C(=O)NCC(=O)N[C@@H](CCC(N)=O)C(=O)N[C@@H]1CCC(=O)NCCCC[C@@H](C(=O)N[C@H](CCCCN)C(=O)N[C@@H](CC(C)C)C(=O)N[C@@H](CC(C)C)C(=O)N[C@@H](CCC(N)=O)C(=O)N[C@@H](CC(=O)O)C(=O)N[C@H](C(=O)N[C@@H](CCSC)C(=O)N[C@@H](CO)C(=O)N[C@@H](CCCN=C(N)N)C(N)=O)[C@@H](C)CC)NC(=O)[C@H](C)NC(=O)[C@@H](CO)NC1=O)C(C)C)[C@@H](C)O
- Relative potency: 0.23

SMILES: CC[C@H](C)[C@H](NC(=O)[C@H](C)NC(=O)[C@H](CC(=O)O)NC(=O)[C@H](C)NC(=O)[C@@H](N)Cc1ccc(O)cc1)C(=O)N[C@@H](Cc1ccccc1)C(=O)N[C@H](C(=O)N[C@@H](CC(N)=O)C(=O)N[C@@H](CO)C(=O)N[C@@H](Cc1ccc(O)cc1)C(=O)N[C@@H](CCCN=C(N)N)C(=O)N[C@@H](CCCCN)C(=O)N[C@H](C(=O)N[C@@H](CC(C)C)C(=O)NCC(=O)N[C@H](CCC(N)=O)C(=O)N[C@H](CC(C)C)C(=O)N[C@H](CO)C(=O)N[C@H](C)C(=O)N[C@H](CCCN=C(N)N)C(=O)N[C@H](CCCCN)C(=O)N[C@@H]1CCC(=O)NCCCC[C@@H](C(=O)N[C@H](C(=O)N[C@@H](CCSC)C(=O)N[C@@H](CO)C(=O)N[C@@H](CCCN=C(N)N)C(N)=O)[C@@H](C)CC)NC(=O)[C@H](CCC(N)=O)NC(=O)[C@@H](CC(C)C)NC1=O)C(C)C)[C@@H](C)O
- Relative potency: 5.3 and 8.8

SMILES: CC[C@H](C)[C@H](NC(=O)[C@H](C)NC(=O)[C@H](CC(=O)O)NC(=O)[C@H](C)NC(=O)[C@@H](N)Cc1ccc(O)cc1)C(=O)N[C@@H](Cc1ccccc1)C(=O)N[C@H](C(=O)N[C@@H](CC(N)=O)C(=O)N[C@@H](CO)C(=O)N[C@@H](Cc1ccc(O)cc1)C(=O)N[C@@H](CCCN=C(N)N)C(=O)N[C@@H](CCCCN)C(=O)N[C@H](C(=O)N[C@H]1CCC(=O)NCCCC[C@@H](C(=O)N[C@@H](CO)C(=O)N[C@@H](C)C(=O)N[C@@H](CCCN=C(N)N)C(=O)N[C@@H](CCCCN)C(=O)N[C@@H](CC(C)C)C(=O)N[C@@H](CC(C)C)C(=O)N[C@@H](CCC(N)=O)C(=O)N[C@@H](CC(=O)O)C(=O)N[C@H](C(=O)N[C@@H](CCSC)C(=O)N[C@@H](CO)C(=O)N[C@@H](CCCN=C(N)N)C(N)=O)[C@@H](C)CC)NC(=O)[C@H](CCC(N)=O)NC(=O)CNC1=O)C(C)C)[C@@H](C)O (H-YADAIFTNSYRKVEGQKSARKLLQDIMSR-NH2; lactam 14-17)
- Relative potency: 0.026

SMILES: CC[C@H](C)[C@H](NC(=O)[C@H](C)NC(=O)[C@H](CC(=O)O)NC(=O)[C@H](C)NC(=O)[C@@](C)(N)Cc1ccc(O)cc1)C(=O)N[C@@H](Cc1ccccc1)C(=O)N[C@H](C(=O)N[C@@H](C)C(=O)N[C@@H](C)C(=O)N[C@@H](Cc1ccc(O)cc1)C(=O)N[C@@H](CCCN=C(N)N)C(=O)N[C@@H](CCCCN)C(=O)N[C@H](C(=O)N[C@@H](CC(C)C)C(=O)N[C@@H](C)C(=O)N[C@@H](CCC(N)=O)C(=O)N[C@@H](CC(C)C)C(=O)N[C@@H](CO)C(=O)N[C@@H](C)C(=O)N[C@@H](CCCN=C(N)N)C(=O)N[C@@H](CCCCN)C(=O)N[C@@H](C)C(=O)N[C@@H](CC(C)C)C(=O)N[C@@H](CCC(N)=O)C(=O)N[C@@H](CC(=O)O)C(=O)N[C@H](C(=O)N[C@@H](CCSC)C(=O)N[C@@H](C)C(=O)N[C@@H](CCCN=C(N)N)C(N)=O)[C@@H](C)CC)C(C)C)[C@@H](C)O (H-[αMeY]ADAIFTAAYRKVLAQLSARKALQDIMAR-NH2)
- Relative potency: 11.2
